Like-named read-outs stand apart in the source and are kept apart here.
Experiments:
MV4;11 cells = test: Cell Titer-Glo cell growth inhibition in MV4;11 cell line (Day 5 / Day 10); assay type: cell-based
Summary of the method: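 Cells seeded at 3750/well and treated with a 10-point, 4-fold dose curve from 0 to 50 µM; ATP-based luminescence viability read at Day 5. A portion is reseeded into fresh compound and media for 5 more days, read at Day 10; IC50 derived from luminescence.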

LSD1 = LSD1 (Homo sapiens, UniProt O60341); test: LSD1 fluorescence coupling enzyme assay (HRP/Amplex Red, H3(1-21)K4me2 peptide), 10-dose IC50; assay type: biochemical; conditions: 10 μM histone H3(1-21)K4me2 peptide substrate, 3-fold serial dilution from 100 μM
Summary of the method: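 Fluorescence coupled assay: LSD1 demethylation of 10 μM H3(1-21)K4me2 peptide produces FAD-dependent H2O2, detected via HRP/Amplex Red as resorufin (Ex/Em 535/590 nm). IC50 from 10 doses, 3-fold serial dilution from 100 μM, in duplicate.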

[1] = Homo sapiens, MV4-11, 120 h, Day 5, read-out: Cell Titer-Glo IC50 (5 d)
[2] = Homo sapiens, MV4-11, 240 h, Day 10, read-out: Cell Titer-Glo IC50 (10 d)
[3] = Day 5, read-out: Cell Titer-Glo IC50 (5 d)

N#Cc1ccc(-c2cc(NC[C@H]3CCC[C@H](N)C3)nn2-c2ccc(-n3ccnn3)cc2)cc1F [Example 61, 4-(1-(4-(1H-1,2,3-triazol-1-yl)phenyl)-3-((((1S,3S)-3-aminocyclohexyl)methyl)amino)-1H-pyrazol-5-yl)-2-fluorobenzonitrile]
IC50 (MV4;11 cells; [1]): < 500 nM | IC50 (MV4;11 cells; [2]): < 500 nM | IC50 (LSD1): < 500 nM

N#Cc1ccc(-c2cc(NC[C@H]3CCC[C@H](N)C3)nn2-c2cccc(-n3ccnn3)c2)cc1F [Example 62, 4-(1-(3-(1H-1,2,3-triazol-1-yl)phenyl)-3-((((1S,3S)-3-aminocyclohexyl)methyl)amino)-1H-pyrazol-5-yl)-2-fluorobenzonitrile]
IC50 (MV4;11 cells; [1]): 1000 to 10000 nM | IC50 (MV4;11 cells; [2]): < 500 nM | IC50 (LSD1): 500 to 1000 nM

N#Cc1ccc(-c2cc(NC[C@H]3CCC[C@H](N)C3)nn2-c2ccc(C(=O)N3CCCC3)cc2)cc1F [Example 63, 4-(3-((((1S,3S)-3-aminocyclohexyl)methyl)amino)-1-(4-(pyrrolidine-1-carbonyl)phenyl)-1H-pyrazol-5-yl)-2-fluorobenzonitrile]
IC50 (MV4;11 cells; [1]): < 500 nM | IC50 (MV4;11 cells; [2]): < 500 nM | IC50 (LSD1): < 500 nM

N#Cc1ccc(-c2cc(NC[C@@H]3CCC[C@@H](N)C3)nn2-c2ccc(C(=O)N3CCCC3)cc2)cc1F [Example 64, 4-(3-((((1R,3R)-3-aminocyclohexyl)methyl)amino)-1-(4-(pyrrolidine-1-carbonyl)phenyl)-1H-pyrazol-5-yl)-2-fluorobenzonitrile]
IC50 (MV4;11 cells; [1]): 1000 to 10000 nM | IC50 (MV4;11 cells; [2]): < 500 nM | IC50 (LSD1): 1000 to 10000 nM

N#Cc1ccc(-c2cc(NC[C@H]3CCC[C@H](N)C3)nn2-c2ccc3[nH]ncc3c2)cc1F [Example 65, 4-(3-((((1S,3S)-3-aminocyclohexyl)methyl)amino)-1-(1H-indazol-5-yl)-1H-pyrazol-5-yl)-2-fluorobenzonitrile]
IC50 (MV4;11 cells; [1]): 500 to 1000 nM | IC50 (MV4;11 cells; [2]): < 500 nM | IC50 (LSD1): < 500 nM

Cn1ccc2cc(-n3nc(NCC4CCC[C@H](N)C4)cc3-c3ccc(C#N)c(F)c3)ccc21 (stereo partly drawn) [Example 66, 4-(3-((((1,3S)-3-aminocyclohexyl)methyl)amino)-1-(1-methyl-1H-indol-5-yl)-1H-pyrazol-5-yl)-2-fluorobenzonitrile]
IC50 (MV4;11 cells; [1]): < 500 nM | IC50 (MV4;11 cells; [2]): < 500 nM | IC50 (LSD1): < 500 nM

Cn1cc2ccc(-n3nc(NC[C@H]4CCC[C@H](N)C4)cc3-c3ccc(C#N)c(F)c3)cc2n1 [Example 67, 4-(3-((((1S,3S)-3-aminocyclohexyl)methyl)amino)-1-(2-methyl-2H-indazol-6-yl)-1H-pyrazol-5-yl)-2-fluorobenzonitrile]
IC50 (MV4;11 cells; [1]): < 500 nM | IC50 (MV4;11 cells; [2]): < 500 nM | IC50 (LSD1): 500 to 1000 nM

Cn1nnc2cc(-n3nc(NC[C@H]4CCC[C@H](N)C4)cc3-c3ccc(C#N)c(F)c3)ccc21 [Example 68, 4-(3-((((1S,3S)-3-aminocyclohexyl)methyl)amino)-1-(1-methyl-1H-benzo[d][1,2,3]triazol-5-yl)-1H-pyrazol-5-yl)-2-fluorobenzonitrile]
IC50 (MV4;11 cells; [1]): < 500 nM | IC50 (MV4;11 cells; [2]): < 500 nM | IC50 (LSD1): < 500 nM

Cn1nc2ccc(-n3nc(NC[C@H]4CCC[C@H](N)C4)cc3-c3ccc(C#N)c(F)c3)cc2n1 [Example 69, 4-(3-((((15,3S)-3-aminocyclohexyl)methyl)amino)-1-(2-methyl-2H-benzo[d][1,2,3]triazol-5-yl)-1H-pyrazol-5-yl)-2-fluorobenzonitrile]
IC50 (MV4;11 cells; [2]): < 500 nM | IC50 (LSD1): < 500 nM

N#Cc1ccc(-c2cc(NC[C@@H]3CCC[C@@H](N)C3)nn2-c2ccc3nn(CCO)cc3c2)cc1F [Example 70, 4-(3-((((1R,3R)-3-aminocyclohexyl)methyl)amino)-1-(2-(2-hydroxyethyl)-2H-indazol-5-yl)-1H-pyrazol-5-yl)-2-fluorobenzonitrile]
IC50 (MV4;11 cells; [1]): 1000 to 10000 nM | IC50 (MV4;11 cells; [2]): < 500 nM | IC50 (LSD1): < 500 nM

N#Cc1ccc(-c2cc(NC[C@@H]3CCC[C@@H](N)C3)nn2-c2ccc3c(cnn3CCO)c2)cc1F [Example 71, 4-(3-((((1R,3R)-3-aminocyclohexyl)methyl)amino)-1-(1-(2-hydroxyethyl)-1H-indazol-5-yl)-1H-pyrazol-5-yl)-2-fluorobenzonitrile]
IC50 (MV4;11 cells; [1]): < 500 nM | IC50 (MV4;11 cells; [2]): < 500 nM | IC50 (LSD1): < 500 nM

CC(C)n1cc2cc(-n3nc(NC[C@@H]4CCC[C@@H](N)C4)cc3-c3ccc(C#N)c(F)c3)ccc2n1 [Example 72, 4-(3-((((1R,3R)-3-aminocyclohexyl)methyl)amino)-1-(2-isopropyl-2H-indazol-5-yl)-1H-pyrazol-5-yl)-2-fluorobenzonitrile]
IC50 (MV4;11 cells; [1]): 500 to 1000 nM | IC50 (MV4;11 cells; [2]): < 500 nM | IC50 (LSD1): 1000 to 10000 nM

CC(C)n1ncc2cc(-n3nc(NC[C@@H]4CCC[C@@H](N)C4)cc3-c3ccc(C#N)c(F)c3)ccc21 [Example 73, 4-(3-((((1R,3R)-3-aminocyclohexyl)methyl)amino)-1-(1-isopropyl-1H-indazol-5-yl)-1H-pyrazol-5-yl)-2-fluorobenzonitrile]
IC50 (MV4;11 cells; [1]): 500 to 1000 nM | IC50 (MV4;11 cells; [2]): < 500 nM | IC50 (LSD1): < 500 nM

Cn1nnc2ccc(-n3nc(NC[C@H]4CCC[C@H](N)C4)cc3-c3ccc(C#N)c(F)c3)cc21 [Example 74, 4-(3-((((15,3S)-3-aminocyclohexyl)methyl)amino)-1-(1-methyl-1H-benzo[d][1,2,3]triazol-6-yl)-1H-pyrazol-5-yl)-2-fluorobenzonitrile]
IC50 (MV4;11 cells; [1]): 1000 to 10000 nM | IC50 (MV4;11 cells; [2]): < 500 nM | IC50 (LSD1): 1000 to 10000 nM

N#Cc1ccc(-c2cc(NC[C@@H]3CCC[C@@H](N)C3)nn2-c2ccc3c(cnn3-c3ccncc3)c2)cc1F [Example 76, 4-(3-((((1R,3R)-3-aminocyclohexyl)methyl)amino)-1-(1-(pyridin-4-yl)-1H-indazol-5-yl)-1H-pyrazol-5-yl)-2-fluorobenzonitrile]
IC50 (MV4;11 cells; [1]): 500 to 1000 nM | IC50 (MV4;11 cells; [2]): < 500 nM | IC50 (LSD1): < 500 nM

COc1ccc(-n2nc(NC[C@H]3CCC[C@@H](CN)C3)cc2-c2ccc(C#N)c(F)c2)cc1 [Example 77, 4-(3-((((1S,3R)-3-(aminomethyl)cyclohexyl)methyl)amino)-1-(4-methoxyphenyl)-1H-pyrazol-5-yl)-2-fluorobenzonitrile]
IC50 (MV4;11 cells; [1]): 1000 to 10000 nM | IC50 (MV4;11 cells; [2]): 1000 to 10000 nM | IC50 (LSD1): 1000 to 10000 nM

COc1ccc(-n2nc(NC[C@@H]3CCC[C@@H](CN)C3)cc2-c2ccc(C#N)c(F)c2)cc1 [Example 78, 4-(3-((((1R,3R)-3-(aminomethyl)cyclohexyl)methyl)amino)-1-(4-methoxyphenyl)-1H-pyrazol-5-yl)-2-fluorobenzonitrile]
IC50 (MV4;11 cells; [1]): 1000 to 10000 nM | IC50 (MV4;11 cells; [2]): 1000 to 10000 nM | IC50 (LSD1): < 500 nM

COc1ccc(-n2nc(N3CCCC4CCCCC43)cc2-c2ccc(C#N)c(F)c2)cc1 (centres unmarked) [Example 82, 2-fluoro-4-(1-(4-methoxyphenyl)-3-(octahydroquinolin-1(2H)-yl)-1H-pyrazol-5-yl)benzonitrile]
IC50 (MV4;11 cells; [2]): > 10000 nM | IC50 (LSD1): 1000 to 10000 nM

(R)-4-(3-(3-aminopiperidin-1-yl)-1-(p-tolyl)-1H-pyrazol-5-yl)-2-fluorobenzonitrile/(R)-4-(5-(3-aminopiperidin-1-yl)-1-(p-tolyl)-1H-pyrazol-3-yl)-2-fluorobenzonitrile [Example 38]
IC50 (MV4;11 cells; [3]): 1000 to 10000 nM | IC50 (LSD1): < 500 nM

(S)-4-(3-(3-aminopiperidin-1-yl)-1-(p-tolyl)-1H-pyrazol-5-yl)-2-fluorobenzonitrile/(S)-4-(5-(3-aminopiperidin-1-yl)-1-(p-tolyl)-1H-pyrazol-3-yl)-2-fluorobenzonitrile [Example 39]
IC50 (MV4;11 cells; [3]): 1000 to 10000 nM | IC50 (LSD1): < 500 nM

— patent US20250032454A1, “KDM1A INHIBITORS FOR THE TREATMENT OF DISEASE” (Imago Biosciences, Inc., priority 2021, published 2025)
